Laboratory results taken from patent US20220242853A1, “MODIFIED CYANINE DYES AND CONJUGATES THEREOF” (BRACCO IMAGING S.P.A., priority 2019, published 2022).

Key:
[1] = biological target: T1, human recombinant integrin αvβ3 (Homo sapiens, UniProt P05106+P06756); experiment: Integrin receptor affinity ELISA (vitronectin-coated plates); type: binding
T1 construct: purchased R&D Systems

[2] = Biodistribution and elimination by optical imaging after intravenous administration; type: in vivo, Balb/c nu/nu mice; settings: ex vivo, 24 hours after iv 1 nmol/mouse
Description: Biodistribution and elimination of the fluorescent agents of the invention was evaluated by optical imaging after intravenous administration in male Balb/c nu/nu mice, 6-10 weeks of age (Charles River Laboratories). Briefly, mice housed 4 per cage and fed with VRF1 (P) sterile diet (Special Diets Services Ltd) up to the end of the acclimation period (5 days). Then, AIN-76a rodent diet irradiated (Research Diets), a special diet that reduces auto-fluorescence, was used up to the end of the experiments. Imaging experiments were performed using the preclinical optical system IVIS Spectrum (Perkin Elmer).
In vivo imaging was performed under gas anesthesia (Sevofluorane 6-8% in oxygen). Animals were intravenously injected with the compounds and imaged longitudinally at 30 min, 1 h, 2 h, 3 h, 4 h, 6 h, and 24 h post-administration. Thus, animals were euthanized by anesthesia overdose, and the main tissues and organs of interest were excised for ex vivo optical imaging. Regions of interest (ROIs) were drawn on the tissues of interest for each fluorescence image at every time point to evaluate signal intensity (expressed as Average adiant Efficiency). The ratio between the fluorescence signal in the muscle (background tissue) and excretory organs (kidney, liver) was then calculated to assess the contrast. The tissue half-life was calculated by fitting the fluorescence signal decay in the muscle with a bi-exponential decay equation model using GraphPad Prism Software (version 5 for Windows).

[3] = Optical properties: excitation/emission maxima and absolute fluorescence quantum yield; type: physicochemical
Description: Analysis were performed with a Waters Atlantis dC18 5 μm, 4.6×150 mm column using a gradient of phase A CH3COONH4 10 mM and phase B acetonitrile. Measured mass/charge ratios are listed for each compound. A dual-beam UV-VIS spectrophotometer (Lambda 40, Perkin Elmer) was used to determine the absorbance (Abs) of the compounds of the invention. […] The measurements were performed using an excitation wavelength at maximum absorbance of different dyes, and the sample was excited with a […] Xenon Light Source. Detection was performed by photomultiplier tubes (PMT-NIR) cooled detector or by TBX-04 detector. Dye solutions were carefully prepared to have an absorbance lower than 0.1 (optical densities) to minimize re-absorption phenomena. The compounds of the invention have been characterized in terms of their optical properties in vitro in aqueous medium (i.e., water/PBS pH 7.4) and in a clinical chemistry control serum (Seronorm, Sero SA), mimicking the chemical composition and optical properties of human serum. All dye or dye-conjugate solutions were freshly prepared.

[4] = tested on: WM-266-4 human melanoma cells; experiment: Cell uptake by flow cytometry (FACS); type: cell-based
Description: The human melanoma cell line WM-266-4 (ATCC, CRL-1676) was used as in vitro model to assess the cell uptake of representative integrin-binding Compounds 1 and 3, based on the high expression of the integrin receptors, particularly αvβ3, on the membrane of these cells (Capasso et al., PlosOne 2014).
Adherent cells at about 70% confluence were incubated with the compounds 1 or 3 (1 μM) for 2h at 37° C. (5% CO2) in presence of Dulbecco's Modified Eagle's Medium (DMEM) supplemented with 10% FBS, 2 mM glutamine, 100 IU/mL penicillin and 100 μg/mL streptomycin. After two washing steps with PBS, cells were detached using 0.1 mM EDTA in PBS, centrifuged and suspended in buffer (PBS, 0.5% BSA, 0.1% NaN3) for flow cytometry experiments. Fluorescence Activated Cell Sorting (FACS) was used to detect the fluorescence signal within the cells, as measure of cell uptake. Samples were excited with an Argon laser and the emission detected using a 670 nm longpass filter. Values of fluorescence intensity were obtained from the histogram statistic produced by the instrument software.
The residual internalization was calculated by considering the value of fluorescence intensity in absence of the competitor as 100%.
Furthermore, to assess the effect of biological fluids on the cell uptake, parallel experiments were performed incubating the cells with a compounds of the invention in presence of human serum from male AB plasma (Sigma Aldrich, H4522) or human albumin (Sigma Aldrich, A9511). The residual internalization was calculated by considering the value of fluorescence intensity in absence of the serum as 100%. Such uptake assessment also represents an indication of the percentage of compound which is sequestered by the plasma proteins, in particular albumin, when it diffuses through the vascular compartment before reaching the tissue of interest and the particular targeted receptor.

[5] = biological target: T2, human serum albumin (HSA) (Homo sapiens, UniProt P02768); experiment: Binding affinity to human serum albumin (absorbance peak shift or ultrafiltration method); settings: for Kd: phosphate buffer, 25° C., one of the two methods, read-out: HSA affinity (KA) (converted)
T2 construct: purchased Sigma Aldrich A9511
Description: Binding affinity to human serum albumin (HSA; Sigma Aldrich, A9511) was measured using two methods, according to the level of binding affinity of the compounds.
The first method, optimal for compounds which strongly interact with HSA, is based on the analysis of the absorbance spectrum peak shift after the incubation of the dye in solutions containing HSA. Briefly, the samples were incubated at a fixed concentration (1 μM) with HSA dilutions (1×10^−6-4×10^−4M), in phosphate buffer for 5 min in the spectrophotometer at 25° C. before measurements. The measure was performed at the maximum absorbance wavelength of the shifted peak.
The second method, optimal for compound with low affinity for HSA, is based on measuring the variation of the absorbance of solutions containing the dye and various concentrations of HSA after ultrafiltration. Briefly, each compound was incubated at a fixed concentration (2 μM) with HSA dilutions (1×10^−6-4×10^−4 M), in phosphate buffer. The samples were centrifuged (10,000 g for 30 min at 25° C.) in a Microcon device (10 kDa MWCO, Amicon Ultra-0.5 Centrifugal Filter Unit with Ultracel-10 membrane, Millipore) and the absorbance measurements of the filtrates were obtained with the spectrophotometer at the maximum absorbance wavelength of the fluorophore.
For both methods, the affinity constant (KA, M^−1) was calculated by fitting the raw data with the following formula:
wherein ΔA/b=Absorbance measured (b=1 cm) KRL=KA calculated by regression analysis (curve fitting) Δε·Rt calculated by regression analysis (curve fitting) [L]=Albumin concentration
In the first method, ΔA/b corresponds to the absorbance measured for each sample, whereas in the second method ΔA/b is obtained subtracting the absorbance of the control sample (dye without HSA) to the absorbance of each other sample.
However, the measurement of the affinity constant is more precise when the suitable method is used as a function of the affinity level of the compound.

Compound | IC50 [1] [µM] | Kidney to muscle ratio [2] | Liver to muscle ratio [2] | Max Em ([3]; PBS pH 7.4) [nm] | Max Ex ([3]; PBS pH 7.4) [nm] | Φ (absolute fluorescence quantum yield) ([3]; PBS pH 7.4) [%] | Φ (absolute fluorescence quantum yield) ([3]; Seronorm control serum) [%] | Residual cell uptake in presence of human serum ([4]; 1 μM, 2h at 37° C., uptake without serum = 100%) [%] | Residual uptake in the presence of c(RGDfK) as competitor ([4]; 100 μM c(RGDfK), uptake without competitor = 100%) [%] | Kd [5] [µM] | HSA KA ([5]; first method (absorbance peak shift)) | HSA KA ([5]; second method (ultrafiltration))
CC(CC[N+]1=C(/C=C/C=C/C=C/C=C2/N(CCCCCC(=O)NCC3C[C@@H]4CC[C@H]5C(=O)N[C@@H](CCCNC(=N)N)C(=O)NCC(=O)N[C@@H](CC(=O)O)C(=O)N[C@H]3C(=O)N45)c3ccc(C(=O)NCC(O)C(O)C(O)C(O)CO)cc3C2(C)C)C(C)(C)c2cc(C(=O)NCC(O)C(O)C(O)C(O)CO)ccc21)S(=O)(=O)[O-] (stereo partly drawn) [Compound 3] | 0.00264 ± 0.00035 | 2.90 ± 0.55 | 2.50 ± 0.32 | 785 | 757 | 10.6 | 11.7 | 75 | 15 | 238 |  | 
CC(CC[N+]1=C(/C=C/C=C/C=C/C=C2/N(CCCCCC(=O)O)c3ccc(C(=O)NCC(O)C(O)C(O)C(O)CO)cc3C2(C)C)C(C)(C)c2cc(C(=O)NCC(O)C(O)C(O)C(O)CO)ccc21)S(=O)(=O)[O-] (stereo not drawn) [Compound 4] |  |  |  | 785 | 755 | 8.9 | 13.4 |  |  | 196 |  | 
CC1(C)C(/C=C/C=C/C=C2/N(CCCCCC(=O)O)c3ccc(C(=O)NCC(O)C(O)C(O)C(O)CO)cc3C2(C)C)=[N+](CCCCS(=O)(=O)[O-])c2ccc(C(=O)NCC(O)C(O)C(O)C(O)CO)cc21 (stereo not drawn) [Compound 6] |  |  |  | 675 | 656 | 35.6 | 35.9 |  |  | > 1000 |  | 
CC1(C)C(/C=C/C=C/C=C2/N(CCCCCC(=O)O)c3ccc(C(=O)NC(CO)(CO)CO)cc3C2(C)C)=[N+](CCCCS(=O)(=O)[O-])c2ccc(C(=O)NC(CO)(CO)CO)cc21 [Compound 7] |  |  |  | 675 | 655 | 35.1 | 35.1 |  |  | 289 |  | 
CC1(C)C(/C=C/C=C/C=C/C=C2\N(CCCCS(=O)(=O)O)c3ccc4ccccc4c3C2(C)C)=[N+](CCCCS(=O)(=O)[O-])c2ccc3ccccc3c21 [ICG, Indocyanine Green, reference compound] |  |  |  | 810 | 780 | 1.5 | 7.8 |  |  | 2.88 |  | 
CN1/C(=C/C=C/C=C/C2=[N+](CCCCCC(=O)O)c3ccc(S(=O)(=O)[O-])cc3C2(C)C)C(C)(C)c2cc(S(=O)(=O)O)ccc21 [Sulfo-Cy5, reference compound] |  |  |  | 665 | 645 | 27.0 | 35.6 |  |  |  |  | 
IRDye 800CW carboxylate [reference compound] |  |  |  |  |  |  |  |  |  |  | 215,000 M^−1 | 216,000 M^−1
